Columns and labels:
Experiment in all cases: ProQinase radiometric kinase panel
Settings in all cases: mean of 2 exp.
[1] = target: BMPR1A (Homo sapiens, UniProt P36894)
[2] = target: STK25 (Homo sapiens, UniProt O00506)
[3] = target: NIK (Homo sapiens, UniProt Q99558)
[4] = target: RAF1 (Y340D/Y341D) (Homo sapiens, UniProt P04049, Y340D/Y341D)
[5] = target: DAPK3 (Homo sapiens, UniProt O43293)
[6] = target: CDC42BPB (Homo sapiens, UniProt Q9Y5S2)
[7] = target: CAMKK2 (Homo sapiens, UniProt Q96RR4)
[8] = target: PASK (Homo sapiens, UniProt Q96RG2)
[9] = target: NEK4 (Homo sapiens, UniProt P51957)
[10] = target: MAP3K10 (Homo sapiens, UniProt Q02779)
[11] = target: ERK1 (Homo sapiens, UniProt P27361)
[12] = target: GRK5 (Homo sapiens, UniProt P34947)
[13] = target: VEGF-R2 (Homo sapiens, UniProt P35968)
[14] = target: LIMK2 (Homo sapiens, UniProt P53671)
[15] = target: NLK (Homo sapiens, UniProt Q9UBE8)
[16] = target: p38-alpha (Homo sapiens, UniProt Q16539)
[17] = target: MELK (Homo sapiens, UniProt Q14680)
[18] = target: MST2 (Homo sapiens, UniProt Q13188)
[19] = target: TSSK1 (Homo sapiens, UniProt Q9BXA7)
[20] = target: PKC-nu (Homo sapiens, UniProt O94806)
[21] = target: PKC-mu (Homo sapiens, UniProt Q15139)
[22] = target: EEF2K (Homo sapiens, UniProt O00418)
[23] = target: T1, HIPK4 (Homo sapiens, UniProt Q8NE63)
T1 sequence (Q8NE63 1-616): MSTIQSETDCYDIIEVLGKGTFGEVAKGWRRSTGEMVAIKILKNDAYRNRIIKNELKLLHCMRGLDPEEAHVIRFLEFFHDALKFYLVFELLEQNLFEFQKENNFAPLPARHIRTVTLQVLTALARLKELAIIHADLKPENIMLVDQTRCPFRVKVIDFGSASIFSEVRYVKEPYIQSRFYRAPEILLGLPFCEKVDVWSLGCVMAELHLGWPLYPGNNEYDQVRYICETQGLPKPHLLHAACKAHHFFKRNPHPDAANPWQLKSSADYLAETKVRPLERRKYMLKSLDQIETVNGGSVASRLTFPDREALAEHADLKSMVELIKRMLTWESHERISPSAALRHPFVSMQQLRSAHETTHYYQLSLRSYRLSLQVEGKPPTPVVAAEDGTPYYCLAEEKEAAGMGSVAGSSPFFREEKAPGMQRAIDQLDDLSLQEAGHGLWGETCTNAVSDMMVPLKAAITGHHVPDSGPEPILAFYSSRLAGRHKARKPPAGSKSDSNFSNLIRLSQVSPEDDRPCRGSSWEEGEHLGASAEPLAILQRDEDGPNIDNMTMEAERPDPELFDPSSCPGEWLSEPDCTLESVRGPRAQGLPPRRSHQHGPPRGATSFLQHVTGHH

[24] = target: ERBB2 (Homo sapiens, UniProt P04626)
[25] = target: NEK2 (Homo sapiens, UniProt P51955)
[26] = target: NEK9 (Homo sapiens, UniProt Q8TD19)
[27] = target: AKT3 (Homo sapiens, UniProt Q9Y243)
[28] = target: TXK (Homo sapiens, UniProt P42681)
[29] = target: IRAK4 (Homo sapiens, UniProt Q9NWZ3)
[30] = target: HIPK3 (Homo sapiens, UniProt Q9H422)
[31] = target: MST1 (Homo sapiens, UniProt Q13043)
[32] = target: TBK1 (Homo sapiens, UniProt Q9UHD2)

NEK2, sequence (P51955 whole entry): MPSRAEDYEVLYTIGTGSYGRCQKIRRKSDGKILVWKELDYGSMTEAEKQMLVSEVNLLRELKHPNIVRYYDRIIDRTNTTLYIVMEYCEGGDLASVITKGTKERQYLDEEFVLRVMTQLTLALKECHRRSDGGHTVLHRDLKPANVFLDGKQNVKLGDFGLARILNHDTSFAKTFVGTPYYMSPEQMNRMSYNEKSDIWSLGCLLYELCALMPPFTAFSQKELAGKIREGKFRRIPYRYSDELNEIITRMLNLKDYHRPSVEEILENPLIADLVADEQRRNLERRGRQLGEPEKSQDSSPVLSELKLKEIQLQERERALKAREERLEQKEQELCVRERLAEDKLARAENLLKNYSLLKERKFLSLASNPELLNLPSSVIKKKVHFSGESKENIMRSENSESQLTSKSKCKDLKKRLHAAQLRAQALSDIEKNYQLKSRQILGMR
HIPK3, sequence (Q9H422 whole entry): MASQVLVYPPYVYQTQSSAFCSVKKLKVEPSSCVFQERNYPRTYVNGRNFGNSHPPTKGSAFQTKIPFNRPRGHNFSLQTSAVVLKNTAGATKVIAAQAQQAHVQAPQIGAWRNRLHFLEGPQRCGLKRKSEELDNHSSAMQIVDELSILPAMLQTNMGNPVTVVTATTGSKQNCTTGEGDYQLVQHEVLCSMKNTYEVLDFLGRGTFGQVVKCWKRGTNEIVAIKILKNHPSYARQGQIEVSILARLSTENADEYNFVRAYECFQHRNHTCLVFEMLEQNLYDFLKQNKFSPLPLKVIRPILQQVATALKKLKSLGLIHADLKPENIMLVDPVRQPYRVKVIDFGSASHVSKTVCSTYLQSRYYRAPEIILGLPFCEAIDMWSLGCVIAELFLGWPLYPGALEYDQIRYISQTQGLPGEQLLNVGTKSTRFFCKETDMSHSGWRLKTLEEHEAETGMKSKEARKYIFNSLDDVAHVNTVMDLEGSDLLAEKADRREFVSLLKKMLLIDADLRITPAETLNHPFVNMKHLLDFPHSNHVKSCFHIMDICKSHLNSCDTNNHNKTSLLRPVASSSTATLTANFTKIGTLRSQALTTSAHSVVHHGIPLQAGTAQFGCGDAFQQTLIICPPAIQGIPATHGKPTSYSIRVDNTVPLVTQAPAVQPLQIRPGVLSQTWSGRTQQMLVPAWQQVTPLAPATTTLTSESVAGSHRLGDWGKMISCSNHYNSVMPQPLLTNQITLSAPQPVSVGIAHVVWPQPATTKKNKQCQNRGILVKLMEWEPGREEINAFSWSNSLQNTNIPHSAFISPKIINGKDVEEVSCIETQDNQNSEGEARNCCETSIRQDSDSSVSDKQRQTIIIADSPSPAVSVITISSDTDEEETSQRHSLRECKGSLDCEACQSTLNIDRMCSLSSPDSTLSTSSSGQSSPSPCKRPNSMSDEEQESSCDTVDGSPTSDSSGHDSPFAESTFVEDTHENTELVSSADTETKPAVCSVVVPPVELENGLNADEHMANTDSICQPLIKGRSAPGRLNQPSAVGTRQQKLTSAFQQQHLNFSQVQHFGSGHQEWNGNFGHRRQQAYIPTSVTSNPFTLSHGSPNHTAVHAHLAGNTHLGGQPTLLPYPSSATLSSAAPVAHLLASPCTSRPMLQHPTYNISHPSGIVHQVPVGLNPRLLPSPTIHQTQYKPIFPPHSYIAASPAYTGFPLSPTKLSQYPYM
PKC-nu, sequence (O94806 whole entry): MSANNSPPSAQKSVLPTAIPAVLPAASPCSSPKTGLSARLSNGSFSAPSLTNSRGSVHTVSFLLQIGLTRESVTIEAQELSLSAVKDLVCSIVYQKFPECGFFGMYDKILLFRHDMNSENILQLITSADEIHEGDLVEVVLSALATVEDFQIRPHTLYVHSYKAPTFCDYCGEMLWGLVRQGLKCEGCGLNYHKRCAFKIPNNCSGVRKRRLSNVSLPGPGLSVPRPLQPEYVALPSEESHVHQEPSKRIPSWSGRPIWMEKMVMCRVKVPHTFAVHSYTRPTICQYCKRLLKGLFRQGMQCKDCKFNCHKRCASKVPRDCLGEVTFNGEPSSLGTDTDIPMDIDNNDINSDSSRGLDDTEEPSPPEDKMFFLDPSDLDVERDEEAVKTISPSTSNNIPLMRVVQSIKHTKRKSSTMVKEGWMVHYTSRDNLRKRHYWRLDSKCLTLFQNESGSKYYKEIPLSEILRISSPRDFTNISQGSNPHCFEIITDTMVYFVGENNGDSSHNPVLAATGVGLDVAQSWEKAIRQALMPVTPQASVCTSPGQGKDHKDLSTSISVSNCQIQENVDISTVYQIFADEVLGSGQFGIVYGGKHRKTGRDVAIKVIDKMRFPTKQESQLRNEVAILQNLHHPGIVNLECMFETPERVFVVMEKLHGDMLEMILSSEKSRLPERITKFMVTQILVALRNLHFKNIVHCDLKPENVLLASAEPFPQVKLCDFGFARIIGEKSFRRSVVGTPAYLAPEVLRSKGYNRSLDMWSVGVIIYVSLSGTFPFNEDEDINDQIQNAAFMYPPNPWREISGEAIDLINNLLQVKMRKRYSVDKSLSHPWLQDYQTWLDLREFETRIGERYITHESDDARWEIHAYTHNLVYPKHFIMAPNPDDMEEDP
NIK, sequence (Q99558 whole entry): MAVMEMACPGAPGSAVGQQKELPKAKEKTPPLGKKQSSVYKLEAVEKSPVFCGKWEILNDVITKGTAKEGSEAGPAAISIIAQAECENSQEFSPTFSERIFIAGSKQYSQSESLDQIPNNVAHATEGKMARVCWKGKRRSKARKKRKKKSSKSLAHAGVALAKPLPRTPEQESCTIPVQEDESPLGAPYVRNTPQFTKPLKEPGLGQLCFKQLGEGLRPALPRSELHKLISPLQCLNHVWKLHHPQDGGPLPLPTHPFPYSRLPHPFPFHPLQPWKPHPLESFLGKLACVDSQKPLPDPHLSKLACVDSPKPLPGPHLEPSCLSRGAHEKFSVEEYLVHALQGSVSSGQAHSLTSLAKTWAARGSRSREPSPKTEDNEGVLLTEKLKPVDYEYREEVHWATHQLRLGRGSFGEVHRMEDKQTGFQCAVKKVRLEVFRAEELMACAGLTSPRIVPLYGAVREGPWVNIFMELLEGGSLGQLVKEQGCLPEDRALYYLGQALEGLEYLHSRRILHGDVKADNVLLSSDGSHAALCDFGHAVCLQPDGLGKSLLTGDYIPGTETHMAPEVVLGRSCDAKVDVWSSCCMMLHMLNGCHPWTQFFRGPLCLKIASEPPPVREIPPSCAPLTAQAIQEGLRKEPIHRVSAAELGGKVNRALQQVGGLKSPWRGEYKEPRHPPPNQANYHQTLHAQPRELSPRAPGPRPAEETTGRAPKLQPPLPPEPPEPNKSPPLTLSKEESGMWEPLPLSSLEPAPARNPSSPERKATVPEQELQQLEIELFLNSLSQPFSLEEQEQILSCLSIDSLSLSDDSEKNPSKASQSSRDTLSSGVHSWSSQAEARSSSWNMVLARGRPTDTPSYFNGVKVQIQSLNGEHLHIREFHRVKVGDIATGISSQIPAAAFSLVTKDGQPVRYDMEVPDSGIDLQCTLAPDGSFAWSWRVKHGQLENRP
NEK9, sequence (Q8TD19 whole entry): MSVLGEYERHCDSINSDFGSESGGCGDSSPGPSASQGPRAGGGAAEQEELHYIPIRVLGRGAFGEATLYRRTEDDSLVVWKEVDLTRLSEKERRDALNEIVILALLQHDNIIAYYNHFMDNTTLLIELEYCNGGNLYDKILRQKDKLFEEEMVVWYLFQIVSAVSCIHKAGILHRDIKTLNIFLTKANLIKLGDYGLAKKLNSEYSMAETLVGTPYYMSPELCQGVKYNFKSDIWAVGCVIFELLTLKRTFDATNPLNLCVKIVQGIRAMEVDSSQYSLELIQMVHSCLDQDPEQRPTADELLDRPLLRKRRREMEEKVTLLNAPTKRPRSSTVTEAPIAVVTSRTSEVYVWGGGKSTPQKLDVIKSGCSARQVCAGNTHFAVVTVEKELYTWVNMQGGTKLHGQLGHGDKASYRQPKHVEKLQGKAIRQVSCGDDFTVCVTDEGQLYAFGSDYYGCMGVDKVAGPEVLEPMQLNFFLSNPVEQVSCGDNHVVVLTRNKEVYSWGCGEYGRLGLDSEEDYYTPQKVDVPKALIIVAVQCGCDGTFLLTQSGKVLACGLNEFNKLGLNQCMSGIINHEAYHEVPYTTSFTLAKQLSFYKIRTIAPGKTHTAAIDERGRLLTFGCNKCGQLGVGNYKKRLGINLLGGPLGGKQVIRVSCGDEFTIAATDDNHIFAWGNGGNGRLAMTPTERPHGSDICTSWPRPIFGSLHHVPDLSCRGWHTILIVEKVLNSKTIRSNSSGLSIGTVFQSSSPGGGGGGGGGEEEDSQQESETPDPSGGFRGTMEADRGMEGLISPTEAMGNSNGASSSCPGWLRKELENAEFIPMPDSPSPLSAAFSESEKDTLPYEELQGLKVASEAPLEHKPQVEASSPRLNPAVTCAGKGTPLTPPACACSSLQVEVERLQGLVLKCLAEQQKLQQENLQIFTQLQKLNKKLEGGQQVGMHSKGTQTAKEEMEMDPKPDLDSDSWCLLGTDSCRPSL
ERK1, sequence (P27361 whole entry): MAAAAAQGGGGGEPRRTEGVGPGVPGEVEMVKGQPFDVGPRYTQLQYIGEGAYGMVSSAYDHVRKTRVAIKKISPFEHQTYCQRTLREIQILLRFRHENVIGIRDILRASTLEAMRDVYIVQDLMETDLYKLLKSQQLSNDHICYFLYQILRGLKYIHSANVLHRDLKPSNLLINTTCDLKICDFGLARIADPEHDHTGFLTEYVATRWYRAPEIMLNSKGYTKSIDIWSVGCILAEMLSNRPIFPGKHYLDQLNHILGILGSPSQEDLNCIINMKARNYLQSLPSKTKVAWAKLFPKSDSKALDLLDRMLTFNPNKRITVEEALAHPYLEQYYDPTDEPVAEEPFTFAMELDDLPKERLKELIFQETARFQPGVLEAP

SMILES: COc1ccc2c3ccnc(Cl)c3n(CC#N)c2c1 [AnnH75]
- residual activity at 1 µM, Mean [1]: 89 % of control
- residual activity at 1 µM, Mean [2]: 96 % of control
- residual activity at 1 µM, Mean [3]: 87 % of control
- residual activity at 1 µM, Mean [4]: 99 % of control
- residual activity at 1 µM, Mean [5]: 98 % of control
- residual activity at 1 µM, Mean [6]: 94 % of control
- residual activity at 1 µM, Mean [7]: 86 % of control
- residual activity at 1 µM, Mean [8]: 74 % of control
- residual activity at 1 µM, Mean [9]: 98 % of control
- residual activity at 1 µM, Mean [10]: 91 % of control
- residual activity at 1 µM, Mean [11]: 87 % of control
- residual activity at 1 µM, Mean [12]: 95 % of control
- residual activity at 1 µM, Mean [13]: 98 % of control
- residual activity at 1 µM, Mean [14]: 94 % of control
- residual activity at 1 µM, Mean [15]: 92 % of control
- residual activity at 1 µM, Mean [16]: 86 % of control
- residual activity at 1 µM, Mean [17]: 87 % of control
- residual activity at 1 µM, Mean [18]: 101 % of control
- residual activity at 1 µM, Mean [19]: 85 % of control
- residual activity at 1 µM, Mean [20]: 87 % of control
- residual activity at 1 µM, Mean [21]: 100 % of control
- residual activity at 1 µM, Mean [22]: 98 % of control
- residual activity at 1 µM, Mean [23]: 88 % of control
- residual activity at 1 µM, Mean [24]: 102 % of control
- residual activity at 1 µM, Mean [25]: 90 % of control
- residual activity at 1 µM, Mean [26]: 95 % of control
- residual activity at 1 µM, Mean [27]: 104 % of control
- residual activity at 1 µM, Mean [28]: 94 % of control
- residual activity at 1 µM, Mean [29]: 92 % of control
- residual activity at 1 µM, Mean [30]: 88 % of control
- residual activity at 1 µM, Mean [31]: 91 % of control
- residual activity at 1 µM, Mean [32]: 94 % of control

From paper PMC4508061, “Selectivity Profiling and Biological Activity of Novel β-Carbolines as Potent and Selective DYRK1 Kinase Inhibitors” (PLoS ONE, 2015)
